Measured values published in patent publication US9078874B2, “Composition and method for treating cognitive impairments in down syndrom subjects” (Centre National De La Recherche Scientifique—CNRS, priority 2009, dated 2015).

Columns and labels:
[1] = system: euploid and Ts65Dn mice; assay: Locomotor activity and anxiety in the open field; type: in vivo
Experimental: FIG. 7 depicts results from a locomotor activity and anxiety study of α5IA in Ts65Dn and euploid mice in the open field. Effects of α5IA (5 mg/kg) were evaluated on locomotion and anxiety in the open field.
Locomotor activity was evaluated in a total of 33 mice 30 min after i.p. injections (placebo: 8 euploid and 7 Ts65Dn mice; α5IA (5 mg/kg): 10 euploid and 8 Ts65Dn mice). Locomotion was measured in a square open field (50 cm×50 cm; luminosity: 30 lux) with black walls 30 cm high. Briefly, each animal was placed in the center of the arena and allowed to freely explore it for 10 min. Horizontal activity was monitored using the Any-Maze software. Time spent in the 10-cm wide peripheral zone and in the complementary 30 cm×30 cm central zone was recorded to evaluate anxiety.

[2] = system: fos protein; assay: Cerebral fos immunoreactivity after object recognition acquisition; type: in vivo, mice; settings: 5 mg/kg i.p.
Experimental: The mechanism of action of α5IA was investigated by quantifying neuronal activity by measuring production of fos protein in mice subjected to an object recognition task (exploration of a new environment).
The protocol that was used involved treating mice (placebo or drug). 30 minutes later, the mice were subjected to exploring a new environment, a situation in which the animal acquires and stores information spontaneously. This behavioral stimulation activates c-fos gene, and the expression product of this gene (the Fos protein) is then detected by immunohistochemistry and quantified using dedicated image analysis software. […]
Image analysis was performed as follows: regions of interest (ROIs) were photographed using an Olympus BX61 microscope (x10 objective) and fos immunostaining was quantified using a dedicated image processing software which automatically calculated the proportion of fos-stained tissue (p=stained area/total area), providing an unbiased stereological measurement of fos immunoreactivity. Four ROIs were analyzed: posterior cingulate cortex, perirhinal cortex, dentate gyms and CA1 field of the hippocampus. Each ROI was sampled on several serial sections and results were then averaged to give a reliable quantitative evaluation of local fos immunostaining.

Cc1cc(-c2nnc3c4ccccc4c(OCc4cn(C)nn4)nn23)no1 [α5IA, 3-(5-methylisoxazol-3-yl)-6-[(1-methyl-1,2,3-triazol-4-yl)methyloxy]-1,2,4-triazolo[3,4-a]phthalazine]
locomotor activity and anxiety (periphery-to-center exploration ratio) in the open field ([1]; 5 mg/kg, Ts65Dn and euploid mice): did not alter locomotor activity and anxiety
horizontal activity (traveled distances) ([1]; single injection 5 mg/kg, euploid and Ts65Dn mice): did not modify the gross locomotor activity
fos immunoreactivity relative to placebo-treated littermates ([2]; all brain regions sampled, except the dentate gyrus): significant increase of fos
neuronal activity (fos) in the dentate gyrus ([2]; dentate gyrus): not significantly affected
